# Measured values reported in ChEMBL document CHEMBL3351859, “Indoleamine 2,3-dioxygenase inhibitors: potential treatment for cancer, sepsis, and more” (ACS Med Chem Lett, 2014).
# Target: Indoleamine 2,3-dioxygenase 1 (Homo sapiens, UniProt P14902)
# Test: Inhibition of intracellular IDO1 activity in human HeLa cells assessed as L-kynurenine production by Ehrlichs test
# Assay type: cell-based
# Chain of Indoleamine 2,3-dioxygenase 1 (P14902 whole entry): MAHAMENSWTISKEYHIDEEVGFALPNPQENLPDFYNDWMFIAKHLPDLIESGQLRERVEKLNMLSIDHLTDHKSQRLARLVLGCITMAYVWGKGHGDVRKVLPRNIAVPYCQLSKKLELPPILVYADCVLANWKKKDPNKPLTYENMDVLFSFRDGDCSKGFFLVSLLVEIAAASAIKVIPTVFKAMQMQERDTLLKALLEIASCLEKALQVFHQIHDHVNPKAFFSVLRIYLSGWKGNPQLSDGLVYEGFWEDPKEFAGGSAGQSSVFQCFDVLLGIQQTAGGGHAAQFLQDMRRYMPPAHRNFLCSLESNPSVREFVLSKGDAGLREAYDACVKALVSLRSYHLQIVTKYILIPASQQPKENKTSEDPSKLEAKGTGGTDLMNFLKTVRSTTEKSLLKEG
row,SMILES,IC50 [µM]
1,CS(=O)(=O)NCc1cc(Cl)ccc1Nc1cnn[nH]1,1
2,O=C(O)C1CC(Cc2cc(Cl)ccc2Nc2cn[nH]n2)C1 (stereo unspecified),1
3,Cc1cc(F)ccc1Nc1c[nH]nn1,< 0.1
4,N#Cc1cc(Nc2cn[nH]n2)ccc1Cl,0.1
5,CCc1cc(Cl)ccc1Nc1cnn[nH]1,< 0.1
6,CCc1cc(Nc2cnn[nH]2)ccc1Cl,0.1
